Assays:
Assay in all cases: relative viability (nuclei count vs DMSO), 5 days (fraction); higher = more cells survive
[1] = system: NCI-H2085
Method in brief: (§1)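 The day after seeding in 1536-well plates, lung cancer cell lines were treated by pin tool with a single drug, or with a fixed anchor-drug dose together with five library-drug doses (not always all listed) in √10 steps. After 5 days, a combined fix-and-stain solution (final 0.05% Triton X-100, 1% formaldehyde, 1 ug/ml Hoechst) was added. Nuclei counted on 4× images gave relative viability as treated counts over vehicle counts, reported as the median of duplicate plates.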

[2] = system: BEN
Method in brief: as §1

[3] = system: NCI-H1437
Method in brief: as §1

[4] = system: NCI-H1975
Method in brief: as §1

[5] = system: NCI-H1666
Method in brief: as §1

[6] = system: HCC-44
Method in brief: as §1

[7] = system: H3255
Method in brief: as §1

[8] = system: PC-3 [JPC-3]
Method in brief: as §1

[9] = system: NCI-H358
Method in brief: as §1

[10] = system: LU99A
Method in brief: as §1

[11] = system: EKVX
Method in brief: as §1

[12] = system: NCI-H647
Method in brief: as §1

[13] = system: LOU-NH91
Method in brief: as §1

[14] = system: HOP-62
Method in brief: as §1

[15] = system: NCI-H2087
Method in brief: as §1

[16] = system: NCI-H1395
Method in brief: as §1

[17] = system: COR-L 105
Method in brief: as §1

[18] = system: HCC-827
Method in brief: as §1

[19] = system: NCI-H2342
Method in brief: as §1

[20] = system: SW 1573
Method in brief: as §1

[21] = system: EPLC-272H
Method in brief: as §1

[22] = system: LCLC-97TM1
Method in brief: as §1

[23] = system: 201T
Method in brief: as §1

Oc1nc(-c2ccc(C(F)(F)F)cc2)nc2c1CSCC2 [XAV939] + N=C(N)NC(=N)NCCc1ccccc1 [Phenformin] (partner 250 µM)
relative viability ([1]; first compound 0.08 µM): 0.741 | relative viability ([1]; first compound 0.253 µM): 0.686 | relative viability ([1]; first compound 0.8 µM): 0.737 | relative viability ([1]; first compound 2.53 µM): 0.653 | relative viability ([2]; first compound 0.08 µM): 0.245 | relative viability ([2]; first compound 0.253 µM): 0.226 | relative viability ([2]; first compound 0.8 µM): 0.264 | relative viability ([2]; first compound 2.53 µM): 0.243 | relative viability ([3]; first compound 0.08 µM): 0.343 | relative viability ([3]; first compound 0.253 µM): 0.243 | relative viability ([3]; first compound 0.8 µM): 0.287 | relative viability ([3]; first compound 2.53 µM): 0.252 | relative viability ([4]; first compound 0.08 µM): 0.409 | relative viability ([4]; first compound 0.253 µM): 0.42 | relative viability ([4]; first compound 0.8 µM): 0.382 | relative viability ([4]; first compound 2.53 µM): 0.37 | relative viability ([5]; first compound 0.08 µM): 0.561 | relative viability ([5]; first compound 0.253 µM): 0.497 | relative viability ([5]; first compound 0.8 µM): 0.555 | relative viability ([5]; first compound 2.53 µM): 0.555 | relative viability ([6]; first compound 0.08 µM): 0.239 | relative viability ([6]; first compound 0.253 µM): 0.219 | relative viability ([6]; first compound 0.8 µM): 0.221 | relative viability ([6]; first compound 2.53 µM): 0.259 | relative viability ([7]; first compound 0.08 µM): 0.415 | relative viability ([7]; first compound 0.253 µM): 0.397 | relative viability ([7]; first compound 0.8 µM): 0.381 | relative viability ([7]; first compound 2.53 µM): 0.375 | relative viability ([8]; first compound 0.08 µM): 0.441 | relative viability ([8]; first compound 0.253 µM): 0.466 | relative viability ([8]; first compound 0.8 µM): 0.474 | relative viability ([8]; first compound 2.53 µM): 0.441 | relative viability ([9]; first compound 0.08 µM): 0.311 | relative viability ([9]; first compound 0.253 µM): 0.235 | relative viability ([9]; first compound 0.8 µM): 0.311 | relative viability ([9]; first compound 2.53 µM): 0.328 | relative viability ([10]; first compound 0.08 µM): 0.956 | relative viability ([10]; first compound 0.253 µM): 0.863 | relative viability ([10]; first compound 0.8 µM): 0.807 | relative viability ([10]; first compound 2.53 µM): 0.853 | relative viability ([11]; first compound 0.08 µM): 0.219 | relative viability ([11]; first compound 0.253 µM): 0.225 | relative viability ([11]; first compound 0.8 µM): 0.213 | relative viability ([11]; first compound 2.53 µM): 0.221 | relative viability ([12]; first compound 0.08 µM): 0.553 | relative viability ([12]; first compound 0.253 µM): 0.438 | relative viability ([12]; first compound 0.8 µM): 0.61 | relative viability ([12]; first compound 2.53 µM): 0.28 | relative viability ([13]; first compound 0.08 µM): 0.672 | relative viability ([13]; first compound 0.253 µM): 0.627 | relative viability ([13]; first compound 0.8 µM): 0.702 | relative viability ([13]; first compound 2.53 µM): 0.618 | relative viability ([14]; first compound 0.08 µM): 0.8 | relative viability ([14]; first compound 0.253 µM): 0.623 | relative viability ([14]; first compound 0.8 µM): 0.646 | relative viability ([14]; first compound 2.53 µM): 0.593 | relative viability ([15]; first compound 0.08 µM): 0.6 | relative viability ([15]; first compound 0.253 µM): 0.455 | relative viability ([15]; first compound 0.8 µM): 0.433 | relative viability ([15]; first compound 2.53 µM): 0.395 | relative viability ([16]; first compound 0.08 µM): 0.429 | relative viability ([16]; first compound 0.253 µM): 0.443 | relative viability ([16]; first compound 0.8 µM): 0.438 | relative viability ([16]; first compound 2.53 µM): 0.462 | relative viability ([17]; first compound 0.08 µM): 0.51 | relative viability ([17]; first compound 0.253 µM): 0.492 | relative viability ([17]; first compound 0.8 µM): 0.434 | relative viability ([17]; first compound 2.53 µM): 0.381 | relative viability ([18]; first compound 0.08 µM): 0.364 | relative viability ([18]; first compound 0.253 µM): 0.421 | relative viability ([18]; first compound 0.8 µM): 0.452 | relative viability ([18]; first compound 2.53 µM): 0.394 | relative viability ([19]; first compound 0.08 µM): 0.555 | relative viability ([19]; first compound 0.253 µM): 0.518 | relative viability ([19]; first compound 0.8 µM): 0.552 | relative viability ([19]; first compound 2.53 µM): 0.451 | relative viability ([20]; first compound 0.08 µM): 0.483 | relative viability ([20]; first compound 0.253 µM): 0.398 | relative viability ([20]; first compound 0.8 µM): 0.369 | relative viability ([20]; first compound 2.53 µM): 0.37 | relative viability ([21]; first compound 0.08 µM): 0.311 | relative viability ([21]; first compound 0.253 µM): 0.316 | relative viability ([21]; first compound 0.8 µM): 0.308 | relative viability ([21]; first compound 2.53 µM): 0.325 | relative viability ([22]; first compound 0.08 µM): 0.474 | relative viability ([22]; first compound 0.253 µM): 0.352 | relative viability ([22]; first compound 0.8 µM): 0.434 | relative viability ([22]; first compound 2.53 µM): 0.373 | relative viability ([23]; first compound 0.08 µM): 0.475 | relative viability ([23]; first compound 0.253 µM): 0.421 | relative viability ([23]; first compound 0.8 µM): 0.364 | relative viability ([23]; first compound 2.53 µM): 0.421

From the supplement of paper PMC10307832
